Data published in the NIST ThermoML archive (doi:10.1021/je300873x).

Test: mn = molality of the nth substance listed, in mol/kg
Conditions: for surface tension liquid-gas: Pendant drop shape; for electrical conductivity: Liquid, Digital conductivity meter

CCCCCCCCCCCC[N+](C)(C)CCO.[Br-] [dodecyl(2-hydroxyethyl)dimethylammonium bromide] + O
Conditions	electrical conductivity [S/m]	surface tension liquid-gas [mN/m]
298.15 K, m1 = 0.001	–	68.12
298.15 K, m1 = 0.00201	–	63.05
298.15 K, m1 = 0.00402	–	54.51
298.15 K, m1 = 0.00602	–	49.15
298.15 K, m1 = 0.00803	–	45.74
298.15 K, m1 = 0.00949	0.0809	–
298.15 K, m1 = 0.00996	0.0847	–
298.15 K, m1 = 0.01004	–	42.61
298.15 K, m1 = 0.01049	0.0889	–
298.15 K, m1 = 0.01107	0.0935	–
298.15 K, m1 = 0.01172	0.0987	–
298.15 K, m1 = 0.01205	–	39.74
298.15 K, m1 = 0.01246	0.1047	–
298.15 K, m1 = 0.01286	0.1079	–
298.15 K, m1 = 0.01305	–	38.84
298.15 K, m1 = 0.01329	0.111	–
298.15 K, m1 = 0.01375	0.1138	–
298.15 K, m1 = 0.01424	0.116	–
298.15 K, m1 = 0.01476	0.1177	–
298.15 K, m1 = 0.01506	–	38.78
298.15 K, m1 = 0.01533	0.1196	–
298.15 K, m1 = 0.01595	0.121	–
298.15 K, m1 = 0.01661	0.1226	–
298.15 K, m1 = 0.01707	–	38.7
298.15 K, m1 = 0.01733	0.1248	–
298.15 K, m1 = 0.01812	0.1264	–
298.15 K, m1 = 0.01899	0.1281	–
298.15 K, m1 = 0.01994	0.1302	–
298.15 K, m1 = 0.02009	–	38.51
298.15 K, m1 = 0.03014	–	38.4
298.15 K, m1 = 0.05027	–	38.38
303.15 K, m1 = 0.00945	0.0886	–
303.15 K, m1 = 0.00992	0.093	–
303.15 K, m1 = 0.01045	0.0974	–
303.15 K, m1 = 0.01103	0.1025	–
303.15 K, m1 = 0.01168	0.1068	–
303.15 K, m1 = 0.01241	0.1148	–
303.15 K, m1 = 0.01281	0.1182	–
303.15 K, m1 = 0.01324	0.1212	–
303.15 K, m1 = 0.01369	0.1246	–
303.15 K, m1 = 0.01418	0.128	–
303.15 K, m1 = 0.01471	0.1306	–
303.15 K, m1 = 0.01527	0.1326	–
303.15 K, m1 = 0.01589	0.1346	–
303.15 K, m1 = 0.01655	0.1364	–
303.15 K, m1 = 0.01727	0.1386	–
303.15 K, m1 = 0.01805	0.1407	–
303.15 K, m1 = 0.01892	0.1431	–
303.15 K, m1 = 0.01986	0.1451	–
308.15 K, m1 = 0.00993	0.1022	–
308.15 K, m1 = 0.01046	0.1072	–
308.15 K, m1 = 0.01104	0.112	–
308.15 K, m1 = 0.01169	0.1179	–
308.15 K, m1 = 0.01242	0.1251	–
308.15 K, m1 = 0.01282	0.1293	–
308.15 K, m1 = 0.01325	0.1334	–
308.15 K, m1 = 0.0137	0.1371	–
308.15 K, m1 = 0.01419	0.1408	–
308.15 K, m1 = 0.01472	0.1443	–
308.15 K, m1 = 0.01529	0.1472	–
308.15 K, m1 = 0.0159	0.1496	–
308.15 K, m1 = 0.01656	0.152	–
308.15 K, m1 = 0.01728	0.1541	–
308.15 K, m1 = 0.01807	0.1567	–
308.15 K, m1 = 0.01893	0.1595	–
308.15 K, m1 = 0.01987	0.1621	–
313.15 K, m1 = 0.01044	0.1171	–
313.15 K, m1 = 0.01102	0.1229	–
313.15 K, m1 = 0.01167	0.1298	–
313.15 K, m1 = 0.0124	0.1376	–
313.15 K, m1 = 0.0128	0.1416	–
313.15 K, m1 = 0.01322	0.1461	–
313.15 K, m1 = 0.01368	0.1507	–
313.15 K, m1 = 0.01417	0.1556	–
313.15 K, m1 = 0.01469	0.1595	–
313.15 K, m1 = 0.01526	0.1638	–
313.15 K, m1 = 0.01587	0.1664	–
313.15 K, m1 = 0.01653	0.1694	–
313.15 K, m1 = 0.01725	0.1723	–
313.15 K, m1 = 0.01803	0.1749	–
313.15 K, m1 = 0.01889	0.1783	–
313.15 K, m1 = 0.01984	0.1813	–
318.15 K, m1 = 0.01042	0.127	–
318.15 K, m1 = 0.01099	0.134	–
318.15 K, m1 = 0.01164	0.1411	–
318.15 K, m1 = 0.01237	0.1496	–
318.15 K, m1 = 0.01277	0.1543	–
318.15 K, m1 = 0.01319	0.1592	–
318.15 K, m1 = 0.01365	0.1643	–
318.15 K, m1 = 0.01414	0.1694	–
318.15 K, m1 = 0.01466	0.174	–
318.15 K, m1 = 0.01523	0.1791	–
318.15 K, m1 = 0.01583	0.1838	–
318.15 K, m1 = 0.01649	0.1877	–
318.15 K, m1 = 0.01721	0.1908	–
318.15 K, m1 = 0.018	0.1933	–
318.15 K, m1 = 0.01885	0.1973	–
318.15 K, m1 = 0.0198	0.2012	–
323.15 K, m1 = 0.01039	0.1354	–
323.15 K, m1 = 0.01097	0.1447	–
323.15 K, m1 = 0.01162	0.1524	–
323.15 K, m1 = 0.01234	0.1613	–
323.15 K, m1 = 0.01274	0.1661	–
323.15 K, m1 = 0.01317	0.1716	–
323.15 K, m1 = 0.01362	0.1773	–
323.15 K, m1 = 0.01411	0.1832	–
323.15 K, m1 = 0.01463	0.1896	–
323.15 K, m1 = 0.01519	0.1954	–
323.15 K, m1 = 0.0158	0.2012	–
323.15 K, m1 = 0.01646	0.2061	–
323.15 K, m1 = 0.01717	0.21	–
323.15 K, m1 = 0.01795	0.2148	–
323.15 K, m1 = 0.01881	0.2187	–
323.15 K, m1 = 0.01975	0.2216	–
